Active and inactive are the calls of the source.
Columns and labels:
[1] = molecular target: T1, Short transient receptor potential channel 4 (Mus musculus, UniProt Q9QUQ5); test: calcium entry via TRPC4 opening agents – cell-based, HEK293 TRPC4/mu-opioid, Fluo-4 calcium, dose response (AID 434937); assay type: functional
T1 sequence (Q9QUQ5 whole entry): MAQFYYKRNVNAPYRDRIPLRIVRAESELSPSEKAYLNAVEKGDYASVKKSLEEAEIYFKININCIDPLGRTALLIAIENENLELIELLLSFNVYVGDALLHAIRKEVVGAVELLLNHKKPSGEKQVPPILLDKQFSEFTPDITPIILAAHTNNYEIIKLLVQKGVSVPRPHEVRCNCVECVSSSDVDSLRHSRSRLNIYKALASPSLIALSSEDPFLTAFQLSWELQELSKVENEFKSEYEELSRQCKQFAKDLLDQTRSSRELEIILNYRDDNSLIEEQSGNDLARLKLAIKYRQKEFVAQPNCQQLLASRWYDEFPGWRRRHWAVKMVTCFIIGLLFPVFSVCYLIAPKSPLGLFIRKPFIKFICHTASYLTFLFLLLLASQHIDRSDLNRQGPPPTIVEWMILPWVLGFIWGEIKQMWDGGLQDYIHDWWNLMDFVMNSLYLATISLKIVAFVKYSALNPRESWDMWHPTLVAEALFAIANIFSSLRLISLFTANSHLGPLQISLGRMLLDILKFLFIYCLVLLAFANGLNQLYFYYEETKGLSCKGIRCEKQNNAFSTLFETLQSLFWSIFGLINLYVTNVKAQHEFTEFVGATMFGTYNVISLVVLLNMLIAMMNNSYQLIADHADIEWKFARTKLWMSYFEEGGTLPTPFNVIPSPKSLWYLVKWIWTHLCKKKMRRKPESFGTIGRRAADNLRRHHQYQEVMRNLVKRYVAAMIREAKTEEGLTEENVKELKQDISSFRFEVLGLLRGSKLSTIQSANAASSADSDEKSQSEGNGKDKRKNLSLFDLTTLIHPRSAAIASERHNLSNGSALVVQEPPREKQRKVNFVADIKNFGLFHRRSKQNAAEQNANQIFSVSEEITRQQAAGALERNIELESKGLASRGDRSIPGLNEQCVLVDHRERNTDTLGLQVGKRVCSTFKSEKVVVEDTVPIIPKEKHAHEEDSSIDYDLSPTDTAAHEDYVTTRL

[2] = NIH3T3 cell viability loss – ATP luminescence, mouse fibroblasts, counter-screen, dose response (AID 2010); assay type: functional, cell-based;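 also: cells exposed to compound for about 90 hours before reading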
[3] = molecular target: T2, Zinc finger protein mex-5 (Caenorhabditis elegans, UniProt Q9XUB2); test: potency of MEX-5 RNA-binding blockers – biochemical, C. elegans, fluorescence polarization, dose response (AID 1960)
T2 sequence (Q9XUB2 whole entry): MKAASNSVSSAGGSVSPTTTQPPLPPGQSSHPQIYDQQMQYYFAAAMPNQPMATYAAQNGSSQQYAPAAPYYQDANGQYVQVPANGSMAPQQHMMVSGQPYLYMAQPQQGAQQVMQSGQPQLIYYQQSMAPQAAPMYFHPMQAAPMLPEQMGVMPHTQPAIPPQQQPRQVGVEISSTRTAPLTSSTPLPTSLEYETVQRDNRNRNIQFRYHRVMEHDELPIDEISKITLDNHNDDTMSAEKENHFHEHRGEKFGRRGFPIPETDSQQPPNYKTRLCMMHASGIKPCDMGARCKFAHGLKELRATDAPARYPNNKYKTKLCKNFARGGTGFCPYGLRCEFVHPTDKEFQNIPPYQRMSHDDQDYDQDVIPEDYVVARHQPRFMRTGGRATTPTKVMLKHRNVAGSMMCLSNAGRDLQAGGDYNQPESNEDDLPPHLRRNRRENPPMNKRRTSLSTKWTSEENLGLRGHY

[4] = molecular target: T3, RNA-binding protein pos-1 (Caenorhabditis elegans, UniProt G5EF15); test: disruptors of C. elegans POS-1 RNA interaction – biochemical, fluorescence polarization, dose response (AID 1964);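 also: purified POS-1 fused to maltose binding protein made in E. coli; potency of compounds blocking POS-1 binding to fluorescent RNA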
T3 sequence (G5EF15 whole entry): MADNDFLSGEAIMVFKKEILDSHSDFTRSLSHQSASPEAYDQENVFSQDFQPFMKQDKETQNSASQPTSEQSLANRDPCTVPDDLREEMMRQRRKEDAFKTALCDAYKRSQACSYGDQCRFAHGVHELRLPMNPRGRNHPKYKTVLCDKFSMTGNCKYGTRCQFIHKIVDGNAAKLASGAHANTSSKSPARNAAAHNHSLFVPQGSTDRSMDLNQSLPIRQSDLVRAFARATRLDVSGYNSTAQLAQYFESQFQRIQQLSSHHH

[5] = Trypanosoma cruzi growth suppression in host cells – NIH3T3 host cells, beta-gal luminescence, confirmation (AID 2044); assay type: functional, cell-based;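 also: intracellular parasites grown in NIH/3T3 mouse fibroblasts as host cells; luminescent beta-galactosidase reporter signal from transgenic T. cruzi replicating inside host cells; inhibitors lower the luminescence signal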
[6] = molecular target: T4, Ubiquitin-conjugating enzyme E2 N (Homo sapiens, UniProt P61088); assay type: functional;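 also: Dose-response confirmation in a TR-FRET assay detecting UBC13-driven polyubiquitin chain formation, inhibition measured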
T4 sequence (P61088 whole entry): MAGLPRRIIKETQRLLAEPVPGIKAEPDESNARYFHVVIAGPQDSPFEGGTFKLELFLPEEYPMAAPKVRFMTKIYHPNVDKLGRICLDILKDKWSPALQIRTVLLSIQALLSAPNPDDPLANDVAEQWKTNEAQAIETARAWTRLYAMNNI

[7] = viability of HCT116 lacking mutant beta-catenin – cell-based, human colon tumor, dose response (AID 1045); assay type: functional;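 also: HCT116 colon tumor cells with beta catenin knocked out; cells exposed to compound for 60 hours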
[8] = viability of PTEN-deleted HCT116 cells – cell-based, HCT116 PTEN knockout, dose response (AID 1047); assay type: functional;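 also: HCT116 colon tumor cells with PTEN knocked out; cells exposed to compound for 60 hours before readout; potency for loss of cell viability measured by luminescence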
[9] = Luminescence Cell-Based Dose Confirmation HTS to Identify Activators of 5'UTR Stem-Loop Driven Alpha-Synuclein mRNA Translation in H4 Neuroglioblastoma Cells. [Related pubchem assays: 1829 (Project Summary), 1814 (Primary HTS)]; assay type: functional
[10] = Luminescence Cell-Based Dose Response HTS to Identify Activators of Luciferase Translation or Activity in H4 […] Cells. [Related pubchem assays: 1829 (Project Summary), 1814 (Primary HTS)]; assay type: functional
H4 = test: Luminescence Cell-Based Dose Response HTS to Identify Activators of 5'UTR Stem-Loop Driven Prion Protein mRNA Translation in H4 Neuroglioblastoma Cells. [Related pubchem assays: 1829 (Project Summary), 1814 (Primary HTS)]; assay type: functional; details: Homo sapiens
[11] = Luminescence Cell-Based Dose Retest to Confirm Inhibitors of Cancer Stem Cells. [Related pubchem assays (depositor defined):AID2717, AID2721]; assay type: functional; details: Homo sapiens
Genome polyprotein = Genome polyprotein (dengue virus type 2, UniProt P29990); test: flavivirus cap methylation enzyme inhibition – biochemical, confirmation dose response, primary screen (AID 588689); assay type: functional
Vero = test: viability of Vero cells under compound – cytotoxicity control for flavivirus capping enzyme inhibitors (AID 588742); assay type: functional; details: Chlorocebus sabaeus
[12] = molecular target: T5, Corticotropin-releasing factor receptor 2/Corticotropin-releasing factor-binding protein (Homo sapiens, UniProt P24387+Q13324); test: activators of CRF receptor 2 with binding protein – uHTS hits, confirmation (AID 602473); assay type: functional; details: read-out: EC50_Mean
T5 sequence (Q13324 whole entry): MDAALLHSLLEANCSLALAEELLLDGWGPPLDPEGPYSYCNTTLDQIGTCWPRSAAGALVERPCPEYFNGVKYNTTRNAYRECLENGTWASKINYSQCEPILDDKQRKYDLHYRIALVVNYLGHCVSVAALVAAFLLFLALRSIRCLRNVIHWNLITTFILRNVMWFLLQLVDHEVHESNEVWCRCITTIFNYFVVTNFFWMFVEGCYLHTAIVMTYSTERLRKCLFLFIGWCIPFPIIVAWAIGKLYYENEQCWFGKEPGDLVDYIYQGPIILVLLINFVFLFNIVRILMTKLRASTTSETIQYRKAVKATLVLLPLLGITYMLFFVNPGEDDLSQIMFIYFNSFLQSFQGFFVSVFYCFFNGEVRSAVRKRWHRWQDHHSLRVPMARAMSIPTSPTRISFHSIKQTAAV
T5 sequence (P24387 whole entry): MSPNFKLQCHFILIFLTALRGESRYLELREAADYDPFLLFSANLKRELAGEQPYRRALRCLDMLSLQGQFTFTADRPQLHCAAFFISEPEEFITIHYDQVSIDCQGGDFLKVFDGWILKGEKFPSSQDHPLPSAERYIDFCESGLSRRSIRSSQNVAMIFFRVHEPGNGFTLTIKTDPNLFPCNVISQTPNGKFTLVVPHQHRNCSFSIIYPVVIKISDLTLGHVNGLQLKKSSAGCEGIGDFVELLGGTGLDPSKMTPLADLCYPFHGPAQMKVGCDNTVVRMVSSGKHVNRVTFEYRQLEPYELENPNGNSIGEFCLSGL

[13] = molecular target: T6, Microphthalmia-associated transcription factor (Homo sapiens, UniProt O75030); test: reducers of TRPM1 reporter luminescence, concentration series – cell-based, SK-MEL-5, cherry-picked, set 3, MITF inhibitor project, dose response (AID 493073); assay type: functional;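 also: SK-MEL-5 melanoma cells with luciferase driven by the MITF target TRPM1 promoter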
T6 sequence (O75030 whole entry): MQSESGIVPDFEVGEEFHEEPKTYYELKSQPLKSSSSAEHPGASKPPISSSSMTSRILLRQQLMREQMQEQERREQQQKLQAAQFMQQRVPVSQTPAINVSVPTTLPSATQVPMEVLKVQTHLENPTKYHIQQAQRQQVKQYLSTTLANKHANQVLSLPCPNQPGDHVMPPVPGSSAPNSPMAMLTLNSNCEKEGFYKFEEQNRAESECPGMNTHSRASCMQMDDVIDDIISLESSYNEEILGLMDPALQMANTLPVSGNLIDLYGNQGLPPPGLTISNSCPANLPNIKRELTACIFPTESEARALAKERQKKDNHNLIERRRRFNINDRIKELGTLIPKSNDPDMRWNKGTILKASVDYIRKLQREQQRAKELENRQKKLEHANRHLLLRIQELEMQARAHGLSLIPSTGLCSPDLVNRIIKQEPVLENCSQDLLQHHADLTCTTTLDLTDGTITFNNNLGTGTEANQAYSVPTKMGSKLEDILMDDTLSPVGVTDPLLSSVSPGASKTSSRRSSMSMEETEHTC

Protein skinhead-1 = molecular target: T7, Protein skinhead-1 (Caenorhabditis elegans, UniProt P34707); assay type: functional
T7 sequence (P34707 whole entry): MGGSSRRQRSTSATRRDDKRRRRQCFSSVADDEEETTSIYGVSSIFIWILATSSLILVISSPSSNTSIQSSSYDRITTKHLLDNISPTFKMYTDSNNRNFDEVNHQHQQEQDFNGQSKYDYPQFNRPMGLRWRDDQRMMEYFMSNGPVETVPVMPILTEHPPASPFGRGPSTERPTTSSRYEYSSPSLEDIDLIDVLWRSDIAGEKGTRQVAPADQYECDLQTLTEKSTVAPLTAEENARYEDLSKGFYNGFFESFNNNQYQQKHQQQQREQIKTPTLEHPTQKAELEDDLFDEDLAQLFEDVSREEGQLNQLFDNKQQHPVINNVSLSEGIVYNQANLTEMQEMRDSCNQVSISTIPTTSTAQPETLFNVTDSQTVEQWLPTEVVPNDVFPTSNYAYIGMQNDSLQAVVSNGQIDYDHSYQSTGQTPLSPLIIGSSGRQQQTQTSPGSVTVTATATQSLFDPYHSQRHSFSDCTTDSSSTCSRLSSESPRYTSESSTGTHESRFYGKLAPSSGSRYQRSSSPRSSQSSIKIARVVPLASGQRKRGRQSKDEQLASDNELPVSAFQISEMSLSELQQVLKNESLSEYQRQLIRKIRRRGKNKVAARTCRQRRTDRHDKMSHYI

[14] = fluconazole-exposed Candida albicans growth modulators – fluorescence, retest, confirmation (AID 2467); assay type: functional, cell-based
[15] = NIH-3T3 fibroblast cytotoxicity, dose response, cytotoxicity control, cell-based, fluorescence, Alamar Blue, secondary assay (AID 2327); assay type: functional;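 also: NIH-3T3 mouse fibroblasts cultured with fluconazole at 8 µg/mL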

Chain of Genome polyprotein (P29990 2492-3391 limits assumed): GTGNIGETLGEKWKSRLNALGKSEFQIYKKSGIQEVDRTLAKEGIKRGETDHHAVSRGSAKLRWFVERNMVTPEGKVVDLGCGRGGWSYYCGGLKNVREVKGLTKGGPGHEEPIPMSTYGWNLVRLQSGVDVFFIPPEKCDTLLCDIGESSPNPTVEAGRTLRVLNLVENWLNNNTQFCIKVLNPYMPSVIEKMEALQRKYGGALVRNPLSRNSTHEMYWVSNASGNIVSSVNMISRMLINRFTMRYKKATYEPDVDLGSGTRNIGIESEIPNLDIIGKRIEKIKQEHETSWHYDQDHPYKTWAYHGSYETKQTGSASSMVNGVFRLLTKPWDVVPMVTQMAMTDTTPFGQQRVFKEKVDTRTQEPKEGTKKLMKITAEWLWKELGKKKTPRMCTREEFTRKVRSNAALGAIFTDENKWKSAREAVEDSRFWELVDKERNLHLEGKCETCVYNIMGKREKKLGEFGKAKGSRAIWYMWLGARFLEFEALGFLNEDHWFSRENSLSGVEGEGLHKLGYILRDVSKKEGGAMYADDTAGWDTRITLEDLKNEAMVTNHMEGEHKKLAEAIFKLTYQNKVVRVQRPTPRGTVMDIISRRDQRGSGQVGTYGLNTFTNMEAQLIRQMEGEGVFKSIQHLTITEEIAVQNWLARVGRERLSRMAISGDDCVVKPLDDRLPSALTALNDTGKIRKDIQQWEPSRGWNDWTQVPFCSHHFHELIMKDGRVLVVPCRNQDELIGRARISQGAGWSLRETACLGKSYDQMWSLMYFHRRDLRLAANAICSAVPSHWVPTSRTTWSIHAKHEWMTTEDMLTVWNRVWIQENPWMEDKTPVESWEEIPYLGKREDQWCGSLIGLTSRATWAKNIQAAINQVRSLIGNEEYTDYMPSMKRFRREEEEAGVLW

CN1CCN(Cc2nc3c(c(=O)[nH]c(=O)n3C)n2Cc2c(F)cccc2Cl)CC1
EC50 [1]: 1.68 µM (active)

COc1cc(C(CCN2CCCC2)c2c(OC)cc(OC)c3c(-c4ccccc4)cc(=O)oc23)cc(OC)c1OC (stereo not drawn)
EC50 [2]: 49.2 µM (active) | EC50 [3]: > 300 µM (not active) | EC50 [4]: > 300 µM (not active) | EC50 [5]: 1.7 µM (active) | IC50 [6]: > 20 µM (inactive)

CC1(C)CC2=NC3=C(C(=O)c4ccccc43)C(c3ccc(Cl)cc3)C2=C(O)C1 (stereo not drawn)
EC50 [7]: 13.8 µM (active) | EC50 [8]: 13.1 µM (active) | IC50 [6]: > 20 µM (inactive)

COc1cccc(NC(=O)COC(=O)c2c(F)cccc2Cl)c1
EC50 [9]: 66.8 µM (active) | EC50 [10]: 16.1 µM (active) | EC50 (H4): 20.2 µM (active)

CC1CCC(NC(=O)C2CCN(c3c4c(nc5ncnn35)CCC4)CC2)CC1 (stereo not drawn)
EC50 [9]: 48.6 µM (active) | EC50 [10]: 64.8 µM (active) | EC50 (H4): 22.3 µM (active)

COc1ccc(-c2sc3ccccc3c2C#Cc2cncn2C)cc1
IC50 [6]: > 20 µM (inactive) | AC50 [11]: 2.69 µM (active)

CCCC(C(=O)NC(C)(C)C)N(Cc1ccccc1Cl)C(=O)c1snc(C(N)=O)c1N (stereo not drawn)
IC50 [6]: > 20 µM (inactive)

CCC(C)/C=C(C)/C=C/C1=CC2=C(Cl)C(=O)C(C)(OC(C)=O)C(=O)C2=CO1 (stereo not drawn)
EC50 [3]: > 300 µM (not active) | IC50 (Genome polyprotein): 38 µM (active) | CC50 (Vero): > 40 µM (active) | EC50 [4]: > 300 µM (not active) | EC50 [9]: > 120 µM (not active) | EC50 [10]: > 120 µM (not active) | EC50 (H4): > 120 µM (not active)

O=C(COc1cc(Cl)c(Cl)cc1Cl)NCCc1ccccn1
EC50 [1]: 10.6 µM (active)

CCCCC(=O)NC(=S)NNC(=O)c1ccc(Cl)cc1Cl
EC50 [12]: 6.56 µM (active) | EC50 [1]: 5.31 µM (active)

NC(=O)C1CCCN(CC(O)COCc2ccc(Cl)cc2)C1 (stereo not drawn)
EC50 [1]: 0.211 µM (active)

COc1cc(C(=O)Nc2cccc(S(=O)(=O)N3CCCC3)c2)cc(OC)c1C
IC50 [6]: > 20 µM (inactive)

N=c1n(CC(=O)c2ccc([N+](=O)[O-])cc2)c2ccccc2n1Cc1ccccc1Cl
AC50 [13]: 4.03 µM (active)

Cc1ccc(C2CC(C(F)(F)F)n3nc(C(=O)NCc4c(C)nn(C)c4C)c(Cl)c3N2)cc1 (stereo not drawn)
IC50 (Protein skinhead-1): > 100 µM (inactive) | AC50 [13]: 8.89 µM (active)

Cc1cc(C)c(CN2CCN(Cc3ccc(C)o3)C(CCO)C2)c(-n2cccn2)c1 (stereo not drawn)
EC50 [1]: 3.35 µM (active)

CN(C)C(CNC(=O)c1ccc2ccccc2n1)c1ccccc1 (stereo not drawn)
EC50 [1]: 0.267 µM (active)

Cc1ccccc1Cn1c(CN2CCc3ccccc3C2)nc2c1c(=O)n(C)c(=O)n2C
EC50 [1]: 5.96 µM (active)

O=C(NCc1ccccc1)C1c2ccccc2Oc2ccccc21
EC50 [14]: 2.43 µM (active) | EC50 [15]: > 150 µM (inconclusive)
